In article PMC9828044 (RSC Advances, 2023):

How the values were obtained:
MAO A = molecular target: T1, MAO A (Rattus norvegicus, UniProt P21396); test: Monoamine oxidase A; type: biochemical; settings: for inhibition at 100 µM: read-out: MAO A % inhibition; for dual inhibition on MAO A and MAO B: both isoforms; for dual inhibition on MAO A and MAO B / selective inhibition toward MAO A: in words; for selective inhibition toward MAO A: MAO A versus MAO B
T1 sequence (P21396 1-526): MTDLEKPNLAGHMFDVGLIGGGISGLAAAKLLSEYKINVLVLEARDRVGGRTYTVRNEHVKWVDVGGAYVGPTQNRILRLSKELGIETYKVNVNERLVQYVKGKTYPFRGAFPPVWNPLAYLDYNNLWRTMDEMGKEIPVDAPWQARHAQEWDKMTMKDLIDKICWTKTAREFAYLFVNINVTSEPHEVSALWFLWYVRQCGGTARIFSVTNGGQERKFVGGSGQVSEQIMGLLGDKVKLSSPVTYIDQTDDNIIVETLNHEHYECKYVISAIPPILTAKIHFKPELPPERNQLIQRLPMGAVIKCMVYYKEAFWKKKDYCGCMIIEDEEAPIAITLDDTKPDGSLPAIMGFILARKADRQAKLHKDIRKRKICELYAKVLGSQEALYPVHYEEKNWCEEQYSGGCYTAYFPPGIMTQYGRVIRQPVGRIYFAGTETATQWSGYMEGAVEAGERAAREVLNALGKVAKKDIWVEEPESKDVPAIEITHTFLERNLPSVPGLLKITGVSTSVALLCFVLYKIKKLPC

MAO B = molecular target: T2, MAO B (Rattus norvegicus, UniProt P19643); test: Monoamine oxidase B; type: biochemical; settings: for inhibition at 100 µM: read-out: MAO B % inhibition; for selective inhibition toward MAO B: MAO B versus MAO A, in words
T2 sequence (P19643 1-520): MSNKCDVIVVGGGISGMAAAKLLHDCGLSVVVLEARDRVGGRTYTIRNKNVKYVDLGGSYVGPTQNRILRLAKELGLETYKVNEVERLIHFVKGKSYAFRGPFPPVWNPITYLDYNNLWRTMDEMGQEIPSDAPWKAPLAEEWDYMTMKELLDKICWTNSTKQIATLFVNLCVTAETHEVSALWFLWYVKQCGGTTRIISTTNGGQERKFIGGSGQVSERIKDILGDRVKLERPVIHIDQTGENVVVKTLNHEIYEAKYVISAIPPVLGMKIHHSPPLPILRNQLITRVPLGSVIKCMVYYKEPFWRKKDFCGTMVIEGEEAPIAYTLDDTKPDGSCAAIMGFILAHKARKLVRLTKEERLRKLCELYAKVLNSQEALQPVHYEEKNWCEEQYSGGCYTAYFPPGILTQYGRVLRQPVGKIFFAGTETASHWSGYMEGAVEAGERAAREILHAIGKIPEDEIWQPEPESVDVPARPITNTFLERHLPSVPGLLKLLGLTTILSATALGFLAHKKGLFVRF

Compound	inhibition at 100 µM (MAO A)	dual inhibition on MAO A and MAO B (MAO A)	other results
CN1c2ccccc2C(=NN=Cc2cc3ccccc3nc2Cl)CS1(=O)=O [7a, 4-(((2-Chloroquinolin-3-yl)methylene)hydrazono)-1-methyl-3,4-dihydro-1H-benzo[c][1,2]thiazine 2,2-dioxide]	38.8%		inhibition at 100 µM (MAO B): 43.6%
Cc1ccc2nc(Cl)c(C=NN=C3CS(=O)(=O)N(C)c4ccccc43)cc2c1 [7b, 4-(((2-Chloro-6-methylquinolin-3-yl)methylene)hydrazono)-1-methyl-3,4-dihydro-1H-benzo[c][1,2]thiazine 2,2-dioxide]		dual inhibition on MAO A as well as MAO B	
COc1ccc2nc(Cl)c(C=NN=C3CS(=O)(=O)N(C)c4ccccc43)cc2c1 [7c, 4-(((2-Chloro-6-methoxyquinolin-3-yl)methylene)hydrazono)-1-methyl-3,4-dihydro-1H-benzo[c][1,2]thiazine 2,2-dioxide]			selective inhibition toward MAO A (MAO A): significant selective inhibition toward MAO A; inhibition at 100 µM (MAO B): 35.8%
Cc1ccc2cc(C=NN=C3CS(=O)(=O)N(C)c4ccccc43)c(Cl)nc2c1 [7d, 4-(((2-Chloro-7-methylquinolin-3-yl)methylene)hydrazono)-1-methyl-3,4-dihydro-1H-benzo[c][1,2]thiazine 2,2-dioxide]		dual inhibition on MAO A as well as MAO B	
COc1ccc2cc(C=NN=C3CS(=O)(=O)N(C)c4ccccc43)c(Cl)nc2c1 [7e, 4-(((2-Chloro-7-methoxyquinolin-3-yl)methylene)hydrazono)-1-methyl-3,4-dihydro-1H-benzo[c][1,2]thiazine 2,2-dioxide]		dual inhibition on MAO A as well as MAO B	
CN1c2ccccc2C(=NN=Cc2cc3ccc(Cl)cc3nc2Cl)CS1(=O)=O [7f, 4-(((2,7-Dichloroquinolin-3-yl)methylene)hydrazono)-1-methyl-3,4-dihydro-1H-benzo[c][1,2]thiazine 2,2-dioxide]	2.03 ± 0.91%	dual inhibition on MAO A as well as MAO B	
CC(=NN=C1CS(=O)(=O)N(C)c2ccccc21)c1ccc(C)s1 [9d, 1-Methyl-4-((1-(5-methylthiophen-2-yl)ethylidene)hydrazono)-3,4-dihydro-1H-benzo[c][1,2]thiazine 2,2-dioxide]			selective inhibition toward MAO A (MAO A): significant selective inhibition toward MAO A; inhibition at 100 µM (MAO B): 31.1%
CC(=NN=C1CS(=O)(=O)N(C)c2ccccc21)c1sccc1Cl [9e, 4-((1-(3-Chlorothiophen-2-yl)ethylidene)hydrazono)-1-methyl-3,4-dihydro-1H-benzo[c][1,2]thiazine 2,2-dioxide]			inhibition at 100 µM (MAO B): 41.9%
CC(=NN=C1CS(=O)(=O)N(C)c2ccccc21)c1ccc(Cl)s1 [9g, 4-((1-(5-Chlorothiophen-2-yl)ethylidene)hydrazono)-1-methyl-3,4-dihydro-1H-benzo[c][1,2]thiazine 2,2-dioxide]		dual inhibition on MAO A as well as MAO B	
CC(=NN=C1CS(=O)(=O)N(C)c2ccccc21)c1cc(Cl)sc1Cl [9k, 4-((1-(2,5-Dichlorothiophen-3-yl)ethylidene)hydrazono)-1-methyl-3,4-dihydro-1H-benzo[c][1,2]thiazine 2,2-dioxide]		dual inhibition on MAO A as well as MAO B	

Now from value to compound, other results behind:

inhibition at 100 µM (MAO A)	Compound	dual inhibition on MAO A and MAO B (MAO A)	other results
2.09 ± 0.89%	CC(=NN=C1CS(=O)(=O)N(C)c2ccccc21)c1cccs1 [9a, 1-Methyl-4-((1-(thiophen-2-yl)ethylidene)hydrazono)-3,4-dihydro-1H-benzo[c][1,2]thiazine 2,2-dioxide]		
38.5%	CC(=NN=C1CS(=O)(=O)N(C)c2ccccc21)c1sccc1C [9b, 1-Methyl-4-((1-(3-methylthiophen-2-yl)ethylidene)hydrazono)-3,4-dihydro-1H-benzo[c][1,2]thiazine 2,2-dioxide]		
39.1%	CC(=NN=C1CS(=O)(=O)N(C)c2ccccc21)c1cc(C)cs1 [9c, 1-Methyl-4-((1-(4-methylthiophen-2-yl)ethylidene)hydrazono)-3,4-dihydro-1H-benzo[c][1,2]thiazine 2,2-dioxide]		
41.6%	CC(=NN=C1CS(=O)(=O)N(C)c2ccccc21)c1sccc1Br [9f, 4-((1-(3-Bromothiophen-2-yl)ethylidene)hydrazono)-1-methyl-3,4-dihydro-1H-benzo[c][1,2]thiazine 2,2-dioxide]		selective inhibition toward MAO B (MAO B): selective inhibition toward the MAO B enzyme
28.4%	CC(=NN=C1CS(=O)(=O)N(C)c2ccccc21)c1ccc(Br)s1 [9h, 4-((1-(5-Bromothiophen-2-yl)ethylidene)hydrazono)-1-methyl-3,4-dihydro-1H-benzo[c][1,2]thiazine 2,2-dioxide]		selective inhibition toward MAO B (MAO B): selective inhibition toward the MAO B enzyme
39.8%	CC(=NN=C1CS(=O)(=O)N(C)c2ccccc21)c1ccc([N+](=O)[O-])s1 [9i, 1-Methyl-4-((1-(5-nitrothiophen-2-yl)ethylidene)hydrazono)-3,4-dihydro-1H-benzo[c][1,2]thiazine 2,2-dioxide]		selective inhibition toward MAO B (MAO B): selective inhibition toward the MAO B enzyme
26.3%	CC(=NN=C1CS(=O)(=O)N(C)c2ccccc21)c1cc(C)sc1C [9j, 4-((1-(2,5-Dimethylthiophen-3-yl)ethylidene)hydrazono)-1-methyl-3,4-dihydro-1H-benzo[c][1,2]thiazine 2,2-dioxide]		selective inhibition toward MAO B (MAO B): selective inhibition toward the MAO B enzyme
